In this test the test system is AI-2 quorum sensing mechanism. Briefly: Inhibition of AI-2 quorum sensing, bioluminescence of Vibrio harveyi BB170 after reaction with Vibrio harveyi BB152 samples. The class given is cell-based. The conditions noted are these: farnesol 800 μM on Vibrio harveyi BB152, reaction for 90 minutes, versus no farnesol (Control). An excerpt:
The effect of inhibition of quorum sensing for certain microorganisms (bacteria) for water treatment by farnesol secreted by the biofilm formation-inhibiting microorganisms, i.e., Candida albicans is thought to be attributed to the inhibition of quorum sensing mechanism using AI-2 signal molecules, which was indirectly assessed by means of Vibrio harveyi BB152, a bacteria producing only AI-2, and Vibrio harveyi BB170, bacteria allowing bioluminescence by specifically accepting only AI-2. Particularly, Vibrio harveyi BB152 producing only AI-2 signal molecules was inoculated in an AB medium (Autoinducer Bioassay medium, Tega et al., 2011) and cultivated to a certain degree of optical density (O.D.600) of 0.1-0.3. Farnesol was injected to attain final concentration of 800 μM (and no farnesol was injected for its comparison), each sample was taken after reaction for 90 minutes, and the each sample was reacted with Vibrio harveyi BB170 to measure bioluminescence. As a result, the bioluminescence of Vibrio harveyi BB170 was decreased by about 42 percents for the case of […] (designated as “Control”) when compared to the case of injecting the farnesol (see FIG. 18).

SMILES strings stand for the structures.

Regarding `CC(C)=CCCC(C)=CCCC(C)=CCO` [Farnesol, farnesol], the “decrease of bioluminescence of Vibrio harveyi BB170” value was “about 42 percents”.

The values are drawn from patent US20180028982A1, “CONTAINER WITH BIOFILM FORMATION-INHIBITING MICROORGANISMS IMMOBILIZED THEREIN AND MEMBRANE WATER TREATMENT APPARATUS USING THE SAME” (SNU R&DB FOUNDATION, priority 2010, published 2018).
